{"source": "patent US20230263822A1", "about": "“MODULATION OF FACTOR 11 EXPRESSION” (Ionis Pharmaceuticals, Inc., priority 2008, published 2023)", "key": {"Factor 11 mRNA": {"tested_on": "Factor 11 mRNA", "assay": "Factor 11 mRNA in cynomolgus monkey liver, day 55 (Example 46)", "assay_type": "in vivo, cynomolgus monkeys", "settings": "for % inhibition of Factor 11 mRNA in liver relative to the PBS control: 25 mg/kg subcutaneously, primer probe set LTS00301; for Factor 11 mRNA in liver vs PBS control: cynomolgus monkeys, 25 mg/kg", "protocol": "Groups, each consisting of two male and two female monkeys, were injected subcutaneously with 25 mg/kg of ISIS 416850, ISIS 449709, ISIS 445522, ISIS 449710, ISIS 449707, ISIS 449711, ISIS 449708, 416858, and ISIS 445531. Antisense oligonucleotide was administered to the monkeys at 25 mg/kg three times per week for week 1 and 25 mg/kg twice per week for weeks 2 to 8. A control group, consisting of two male and two female monkeys was injected subcutaneously with PBS according to the same dosing regimen. Body weights were taken 14 days and 7 days before the start of treatment and were then measured weekly throughout the treatment period. Blood samples were collected 14 days and 5 days before the start of treatment and subsequently several times during the dosing regimen for PT and aPTT measurements, and measurement of various hematologic factors. On day 55, the monkeys were euthanized by exsanguination while under deep anesthesia, and organs harvested for further analysis.\nOn day 55, RNA was extracted from liver tissue for real-time PCR analysis of Factor 11 using primer probe set LTS00301. Results are presented as percent inhibition of Factor 11, relative to PBS control."}, "human Factor 11 mRNA [1]": {"tested_on": "human Factor 11 mRNA", "assay": "Antisense inhibition of human Factor 11 in HepG2 cells by microwalk gapmers, lipofectin, 75 nM (Example 3)", "assay_type": "cell-based", "procedure,_shortened": "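HepG2 cells (10,000/well) were transfected via lipofectin with 75 nM 20-mer MOE gapmers (phosphorothioate, 5-methyl-C) for about 24 h. Factor 11 mRNA was measured by qRT-PCR, normalized to RIBOGREEN total RNA, and given as percent inhibition versus untreated cells.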"}, "human Factor 11 mRNA [2]": {"tested_on": "human Factor 11 mRNA", "assay": "Dose-dependent inhibition of human Factor 11 in HepG2 cells, electroporation 0.7-20 uM (Example 4)", "assay_type": "cell-based", "settings": "for percent inhibition of Factor 11 at 0.7 μM / percent inhibition of Factor 11 at 2.2 μM / percent inhibition of Factor 11 at 6.7 μM / percent inhibition of Factor 11 at 20 μM: relative to untreated control cells", "procedure,_shortened": "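HepG2 cells electroporated with antisense gapmers at 0.7, 2.2, 6.7 and 20 μM, treated ~16 h. Factor 11 mRNA quantified by qRT-PCR (primer probe set RTS 2966), normalised to RIBOGREEN total RNA; expressed as percent inhibition versus untreated control cells.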"}, "[3]": {"assay": "Tolerability in Sprague-Dawley rats: kidney function, urine protein/creatinine (Example 35)", "settings": "for Urine protein/creatinine ratio: Sprague Dawley rats; for BUN / Creatinine: Sprague-Dawley rats, plasma", "description": "A control group of four Sprague Dawley rats was injected subcutaneously with PBS twice per week for 6 weeks. Body weight measurements were taken before and throughout the treatment period. Urine samples were taken before the start of treatment. Three days after the last dose, urine samples were taken and the rats were sacrificed. Organ weights were measured and blood was collected for further analysis.\nTo evaluate the effect of kidney function, plasma concentrations of blood urea nitrogen (BUN) and creatinine were measured using an automated clinical chemistry analyzer (Hitachi Olympus AU400e, Melville, N.Y.)."}, "[4]": {"settings": "HepG2 cells, lipofectin, gapmers targeted to nucleobases 1275 to 1318 of SEQ ID NO: 1"}, "[5]": {"settings": "After treatment, 50 mg/kg s.c. twice per week for 6 weeks"}, "[6]": {"settings": "Before antisense oligonucleotide treatment"}, "[7]": {"settings": "50 mg/kg s.c. twice per week for 6 weeks"}}, "note": "Strand notation (5' to 3'): a small letter for the sugar, then the base; units joined by * are phosphorothioate-linked, units joined directly phosphodiester-linked; [ ] holds rarer units or linkages, { } end groups; capitals alone tell only the bases. e = 2'-O-(2-methoxyethyl) (MOE); [5mC] = 5-methylcytosine; d = 2'-deoxy (DNA)"}
{"substance": "445522 (antisense eG*e[5mC]*eA*e[5mC]*eA*dG*dT*dT*dT*d[5mC]*dT*dG*dG*e[5mC]*eA*eG*eG*e[5mC]) [compound 445522]", "values": [{"measurement": "% inhibition of Factor 11 mRNA in liver relative to the PBS control", "setting": "Factor 11 mRNA", "value": 89, "unit": "%"}]}
{"substance": "445531 (antisense eG*eG*e[5mC]*eA*eT*dT*dG*dG*dT*dG*d[5mC]*dA*d[5mC]*eA*eG*eT*eT*eT) [compound 445531]", "values": [{"measurement": "% inhibition of Factor 11 mRNA in liver relative to the PBS control", "setting": "Factor 11 mRNA", "value": 66, "unit": "%"}]}
{"substance": "ISIS 445522: 5-8-5 or 6-8-6 MOE microwalk gapmer (Table 44) (antisense eG*e[5mC]*eA*e[5mC]*eA*dG*dT*dT*dT*d[5mC]*dT*dG*dG*e[5mC]*eA*eG*eG*e[5mC])", "values": [{"measurement": "Factor 11 mRNA in liver vs PBS control", "setting": "Factor 11 mRNA", "value": "significant reduction of Factor 11 mRNA"}]}
{"substance": "ISIS 449709: 3-8-3, 4-8-4, 2-10-2, 3-10-3 or 4-10-4 MOE microwalk gapmer (Table 46) (antisense eG*e[5mC]*eA*e[5mC]*dA*dG*dT*dT*dT*d[5mC]*dT*dG*dG*d[5mC]*eA*eG*eG*e[5mC])", "values": [{"measurement": "Factor 11 mRNA in liver vs PBS control", "setting": "Factor 11 mRNA", "value": "significant reduction of Factor 11 mRNA"}]}
{"substance": "416850 (antisense TGCACAGTTTCTGGCAGGCC; 5-10-5 gapmer, further chemistry not given here) [compound 416850]", "values": [{"measurement": "% inhibition", "setting": "human Factor 11 mRNA [1]; [4]", "value": 93, "unit": "%"}, {"measurement": "IC50", "setting": "human Factor 11 mRNA [2]", "value": 3.4, "unit": "µM"}, {"measurement": "percent inhibition of Factor 11 at 0.7 μM", "setting": "human Factor 11 mRNA [2]", "value": 14, "unit": "%"}, {"measurement": "percent inhibition of Factor 11 at 2.2 μM", "setting": "human Factor 11 mRNA [2]", "value": 25, "unit": "%"}, {"measurement": "percent inhibition of Factor 11 at 6.7 μM", "setting": "human Factor 11 mRNA [2]", "value": 81, "unit": "%"}, {"measurement": "percent inhibition of Factor 11 at 20 μM", "setting": "human Factor 11 mRNA [2]", "value": 91, "unit": "%"}, {"measurement": "% inhibition of Factor 11 mRNA in liver relative to the PBS control", "setting": "Factor 11 mRNA", "value": 68, "unit": "%"}, {"measurement": "Urine protein/creatinine ratio", "setting": "[3]; [5]", "value": 4.0}, {"measurement": "Urine protein/creatinine ratio", "setting": "[3]; [6]", "value": 1.0}]}
{"substance": "416858 (antisense ACGGCATTGGTGCACAGTTT; 5-10-5 gapmer, further chemistry not given here) [compound 416858]", "values": [{"measurement": "% inhibition", "setting": "human Factor 11 mRNA [1]; [4]", "value": 93, "unit": "%"}, {"measurement": "IC50", "setting": "human Factor 11 mRNA [2]", "value": 5.3, "unit": "µM"}, {"measurement": "percent inhibition of Factor 11 at 0.7 μM", "setting": "human Factor 11 mRNA [2]", "value": 5, "unit": "%"}, {"measurement": "percent inhibition of Factor 11 at 2.2 μM", "setting": "human Factor 11 mRNA [2]", "value": 20, "unit": "%"}, {"measurement": "percent inhibition of Factor 11 at 6.7 μM", "setting": "human Factor 11 mRNA [2]", "value": 56, "unit": "%"}, {"measurement": "percent inhibition of Factor 11 at 20 μM", "setting": "human Factor 11 mRNA [2]", "value": 86, "unit": "%"}, {"measurement": "% inhibition of Factor 11 mRNA in liver relative to the PBS control", "setting": "Factor 11 mRNA", "value": 89, "unit": "%"}, {"measurement": "Urine protein/creatinine ratio", "setting": "[3]; [5]", "value": 4.4}, {"measurement": "Urine protein/creatinine ratio", "setting": "[3]; [6]", "value": 0.9}]}
{"substance": "ISIS 449708: 3-8-3, 4-8-4, 2-10-2, 3-10-3 or 4-10-4 MOE microwalk gapmer (Table 46) (antisense eA*e[5mC]*eA*dG*dT*dT*dT*d[5mC]*dT*dG*dG*e[5mC]*eA*eG)", "values": [{"measurement": "Factor 11 mRNA in liver vs PBS control", "setting": "Factor 11 mRNA", "value": "significant reduction of Factor 11 mRNA"}]}
{"substance": "ISIS 449707: 3-8-3, 4-8-4, 2-10-2, 3-10-3 or 4-10-4 MOE microwalk gapmer (Table 46) (antisense e[5mC]*eA*e[5mC]*eA*dG*dT*dT*dT*d[5mC]*dT*dG*dG*e[5mC]*eA*eG*eG)", "values": [{"measurement": "Factor 11 mRNA in liver vs PBS control", "setting": "Factor 11 mRNA", "value": "significant reduction of Factor 11 mRNA"}]}
{"substance": "ISIS 416858: MOE gapmer, nucleobases 1275 to 1318 of SEQ ID NO: 1 (Table 8) (antisense ACGGCATTGGTGCACAGTTT; MOE gapmer, wing and gap sizes not given here)", "values": [{"measurement": "Factor 11 mRNA in liver vs PBS control", "setting": "Factor 11 mRNA", "value": "significant reduction of Factor 11 mRNA"}, {"measurement": "BUN", "setting": "[3]; [7]", "value": 8, "unit": "mg/dL"}, {"measurement": "Creatinine", "setting": "[3]; [7]", "value": 4, "unit": "mg/dL"}]}
{"substance": "ISIS 449710: 3-8-3, 4-8-4, 2-10-2, 3-10-3 or 4-10-4 MOE microwalk gapmer (Table 46) (antisense e[5mC]*eA*e[5mC]*dA*dG*dT*dT*dT*d[5mC]*dT*dG*dG*d[5mC]*eA*eG*eG)", "values": [{"measurement": "Factor 11 mRNA in liver vs PBS control", "setting": "Factor 11 mRNA", "value": "significant reduction of Factor 11 mRNA"}]}
{"substance": "ISIS 416850: MOE gapmer, nucleobases 1275 to 1318 of SEQ ID NO: 1 (Table 8) (antisense TGCACAGTTTCTGGCAGGCC; MOE gapmer, wing and gap sizes not given here)", "values": [{"measurement": "Factor 11 mRNA in liver vs PBS control", "setting": "Factor 11 mRNA", "value": "significant reduction of Factor 11 mRNA"}, {"measurement": "BUN", "setting": "[3]; [7]", "value": 5, "unit": "mg/dL"}, {"measurement": "Creatinine", "setting": "[3]; [7]", "value": 7, "unit": "mg/dL"}]}
{"substance": "ISIS 445531: 5-8-5 or 6-8-6 MOE microwalk gapmer (Table 44) (antisense eG*eG*e[5mC]*eA*eT*dT*dG*dG*dT*dG*d[5mC]*dA*d[5mC]*eA*eG*eT*eT*eT)", "values": [{"measurement": "Factor 11 mRNA in liver vs PBS control", "setting": "Factor 11 mRNA", "value": "significant reduction of Factor 11 mRNA"}]}
{"substance": "416892 (antisense GCCCTTCATGTCTAGGTCCA; 3-14-3 chimeric gapmer, further chemistry not given here) [compound 416892]", "values": [{"measurement": "% inhibition", "setting": "human Factor 11 mRNA [1]; HepG2, lipofectin, ~24 h, gapmers targeted to nucleobases 656 to 704 of SEQ ID NO: 1", "value": 100, "unit": "%"}, {"measurement": "IC50", "setting": "human Factor 11 mRNA [2]", "value": 2.5, "unit": "µM"}, {"measurement": "percent inhibition of Factor 11 at 0.7 μM", "setting": "human Factor 11 mRNA [2]", "value": 14, "unit": "%"}, {"measurement": "percent inhibition of Factor 11 at 2.2 μM", "setting": "human Factor 11 mRNA [2]", "value": 52, "unit": "%"}, {"measurement": "percent inhibition of Factor 11 at 6.7 μM", "setting": "human Factor 11 mRNA [2]", "value": 82, "unit": "%"}, {"measurement": "percent inhibition of Factor 11 at 20 μM", "setting": "human Factor 11 mRNA [2]", "value": 92, "unit": "%"}, {"measurement": "Urine protein/creatinine ratio", "setting": "[3]; [5]", "value": 21.3}, {"measurement": "Urine protein/creatinine ratio", "setting": "[3]; [6]", "value": 0.8}]}
